Assay results from patent US9376376B2, “Substitute diphenylamine compounds use thereof as antitumor agents” (SINOCHEM CORPORATION, priority 2012, dated 2016).

Assays:
[1] = tested on: lung cancer A549 cell; test: In vitro cell inhibition assay (MTT method), A549; assay type: cell-based, human; details: 48 h incubation
[2] = tested on: leukemia HL-60 cells; test: In vitro cell inhibition assay (MTT method), HL-60; assay type: cell-based, human; details: 48 h
[3] = tested on: non-small cell lung cancer A549 cells; test: In vitro cell inhibition assay, CCK-8 method, A549; assay type: cell-based, human; details: for Proliferation inhibitory effect of the compounds on A549 cells (% of Control): 48 h incubation
Method: (§1) After the cell culture flasks gently shaking, culture fluid was discarded in clean bench. […] Cells were collected and transferred to centrifuge tube. For the non-adherent cells HL-60, CCRF-CEM and MOLT-4, cell flasks were picked up from incubator and then transferred to the centrifuge tubes directly. After cells were collected using centrifuge at 1000 rpm/min for 5 min, the fluid was discarded. Then cells were washed for one time by PBS, discard fluid. Then add some medium, count cells under inverted microscope using blood cell counting plate, according the counting number to making the density of adherent cell was 1×10^5 cells/mL, the non-adherent cell was 2×10^5 cells/mL (the volumes of HL-60, CCRF-CEM, MOLT-4 are smaller than non-adherent cells, these cells added to each well was much more higher). Add 50 μL aliquots to each well of 96-well plates (the density of adherent cells was 5000 cells/well, non-adherent cells was 10000 cells/well). Blank control, Negative control, blank control with compounds and positive control wells were grouped, and three replicate wells were used for each data point in the experiments. Then the cells were cultured in 5% incubator for overnight at 37° C., Then the different concentration compounds were added to each well. After incubation for 48 h, according to the manufacturer's instructions, CCK-8 reagent (10 μl) was added and incubation was continued for a further 2-4 h. The absorbance (A) of each well was read at 450 nm using a plate reader.

[4] = tested on: leukemia HL-60 cells; test: In vitro cell inhibition assay, CCK-8 method, HL-60; assay type: cell-based, human; details: for Proliferation inhibitory effect of the compounds on HL-60 cells (% of Control): CCK-8 method
Method: as §1

[5] = tested on: non-small cell lung cancer NCI-H1650; test: In vitro cell inhibition assay, CCK-8 method, NCI-H1650; assay type: cell-based, human; details: Non-small-cell carcinoma NCI-H1650, CCK-8 method; read-out: The half maximal inhibitory concentration (IC50)
Method: as §1, with “After incubation for 48 h, according to the manufacturer's instructions, CCK-8 reagent (10 μl) was added and incubation was continued for a further 2-4 h.” left out

[6] = tested on: non-small cell lung cancer NCI-H358; test: In vitro cell inhibition assay, CCK-8 method, NCI-H358; assay type: cell-based, human; details: Non-small-cell carcinoma NCI-H358, CCK-8 method; read-out: The half maximal inhibitory concentration (IC50)
Method: as §1, with “After incubation for 48 h, according to the manufacturer's instructions, CCK-8 reagent (10 μl) was added and incubation was continued for a further 2-4 h.” left out

[7] = tested on: leukemia CCRF-CEM; test: In vitro cell inhibition assay, CCK-8 method, CCRF-CEM; assay type: cell-based, human; details: read-out: The half maximal inhibitory concentration (IC50)
Method: as §1, with “After incubation for 48 h, according to the manufacturer's instructions, CCK-8 reagent (10 μl) was added and incubation was continued for a further 2-4 h.” left out

[8] = tested on: leukemia MOLT-4; test: In vitro cell inhibition assay, CCK-8 method, MOLT-4; assay type: cell-based, human; details: leukemia MOLT-4, CCK-8 method; read-out: The half maximal inhibitory concentration (IC50)
Method: as §1, with “After incubation for 48 h, according to the manufacturer's instructions, CCK-8 reagent (10 μl) was added and incubation was continued for a further 2-4 h.” left out

[9] = tested on: colon cancer HT-29; test: In vitro cell inhibition assay, CCK-8 method, HT-29; assay type: cell-based, human; details: Colorectal Cancer HT-29, CCK-8 method; read-out: The half maximal inhibitory concentration (IC50)
Method: as §1, with “After incubation for 48 h, according to the manufacturer's instructions, CCK-8 reagent (10 μl) was added and incubation was continued for a further 2-4 h.” left out

[10] = tested on: pancreatic cancer BXPC-3; test: In vitro cell inhibition assay, CCK-8 method, BXPC-3; assay type: cell-based, human; details: pancreatic cancer BXPC-3, CCK-8 method; read-out: The half maximal inhibitory concentration (IC50)
Method: as §1, with “After incubation for 48 h, according to the manufacturer's instructions, CCK-8 reagent (10 μl) was added and incubation was continued for a further 2-4 h.” left out

[11] = tested on: hepatocarcinoma SK-HEP-1; test: In vitro cell inhibition assay, CCK-8 method, SK-HEP-1; assay type: cell-based, human; details: hepatocarcinoma SK-HEP-1, CCK-8 method; read-out: The half maximal inhibitory concentration (IC50)
Method: as §1, with “After incubation for 48 h, according to the manufacturer's instructions, CCK-8 reagent (10 μl) was added and incubation was continued for a further 2-4 h.” left out

[12] = tested on: cervical cancer Hela; test: In vitro cell inhibition assay, CCK-8 method, Hela; assay type: cell-based, human; details: read-out: The half maximal inhibitory concentration (IC50)
Method: as §1, with “After incubation for 48 h, according to the manufacturer's instructions, CCK-8 reagent (10 μl) was added and incubation was continued for a further 2-4 h.” left out

[13] = tested on: bladder cancer T24; test: In vitro cell inhibition assay, CCK-8 method, T24; assay type: cell-based, human; details: bladder cancer T24, CCK-8 method; read-out: The half maximal inhibitory concentration (IC50)
Method: as §1, with “After incubation for 48 h, according to the manufacturer's instructions, CCK-8 reagent (10 μl) was added and incubation was continued for a further 2-4 h.” left out

[14] = tested on: prostate cancer DU-145; test: In vitro cell inhibition assay, CCK-8 method, DU-145; assay type: cell-based, human; details: Prostate cancer DU-145, CCK-8 method; read-out: The half maximal inhibitory concentration (IC50)
Method: as §1, with “After incubation for 48 h, according to the manufacturer's instructions, CCK-8 reagent (10 μl) was added and incubation was continued for a further 2-4 h.” left out

[15] = tested on: prostate cancer PC-3; test: In vitro cell inhibition assay, CCK-8 method, PC-3; assay type: cell-based, human; details: Prostate cancer PC-3, CCK-8 method; read-out: The half maximal inhibitory concentration (IC50)
Method: as §1, with “After incubation for 48 h, according to the manufacturer's instructions, CCK-8 reagent (10 μl) was added and incubation was continued for a further 2-4 h.” left out

[16] = tested on: osteosarcoma MG-63; test: In vitro cell inhibition assay, CCK-8 method, MG-63; assay type: cell-based, human; details: osteosarcoma MG-63, CCK-8 method; read-out: The half maximal inhibitory concentration (IC50)
Method: as §1, with “After incubation for 48 h, according to the manufacturer's instructions, CCK-8 reagent (10 μl) was added and incubation was continued for a further 2-4 h.” left out

[17] = tested on: breast cancer MDA-MB-231; test: In vitro cell inhibition assay, CCK-8 method, MDA-MB-231; assay type: cell-based, human; details: breast cancer MDA-MB-231, CCK-8 method; read-out: The half maximal inhibitory concentration (IC50)
Method: as §1, with “After incubation for 48 h, according to the manufacturer's instructions, CCK-8 reagent (10 μl) was added and incubation was continued for a further 2-4 h.” left out

[18] = tested on: intracranial malignant melanoma A375; test: In vitro cell inhibition assay, CCK-8 method, A375; assay type: cell-based, human; details: melanoma A375, CCK-8 method; read-out: The half maximal inhibitory concentration (IC50)
Method: as §1, with “After incubation for 48 h, according to the manufacturer's instructions, CCK-8 reagent (10 μl) was added and incubation was continued for a further 2-4 h.” left out

[19] = tested on: glioma U251; test: In vitro cell inhibition assay, CCK-8 method, U251; assay type: cell-based, human; details: glioma U251, CCK-8 method; read-out: The half maximal inhibitory concentration (IC50)
Method: as §1, with “After incubation for 48 h, according to the manufacturer's instructions, CCK-8 reagent (10 μl) was added and incubation was continued for a further 2-4 h.” left out

[20] = tested on: nasopharyngeal carcinoma CNE; test: In vitro cell inhibition assay, CCK-8 method, CNE; assay type: cell-based, human; details: read-out: The half maximal inhibitory concentration (IC50)
Method: as §1, with “After incubation for 48 h, according to the manufacturer's instructions, CCK-8 reagent (10 μl) was added and incubation was continued for a further 2-4 h.” left out

[21] = tested on: colon cancer COLO-205; test: In vitro cell inhibition assay, CCK-8 method, COLO-205; details: read-out: The half maximal inhibitory concentration (IC50); Colorectal Cancer COLO-205, CCK-8 method

N#Cc1c(Cl)c(Cl)c(Nc2c(Cl)cc(Cl)cc2Cl)c(C#N)c1Cl [Compound 6-93]
Proliferation inhibitory effect of the compounds on A549 cell (% of Control) ([1]; 0.01 μM): 12.1 % of Control | Proliferation inhibitory effect of the compounds on A549 cell (% of Control) ([1]; 0.1 μM): 39.4 % of Control | Proliferation inhibitory effect of the compounds on A549 cell (% of Control) ([1]; 1 μM): 74.8 % of Control | Proliferation inhibitory effect of the compounds on A549 cell (% of Control) ([1]; 10 μM): 80.3 % of Control | Proliferation inhibitory effect of the compounds on A549 cell (% of Control) ([1]; 100 μM): 98.2 % of Control | Proliferation inhibitory effect of the compounds on HL-60 cells (% of Control) ([2]; concentration 0.01 μM): 0 % of Control | Proliferation inhibitory effect of the compounds on HL-60 cells (% of Control) ([2]; concentration 0.1 μM): 51.8 % of Control | Proliferation inhibitory effect of the compounds on HL-60 cells (% of Control) ([2]; concentration 1 μM): 70.7 % of Control | Proliferation inhibitory effect of the compounds on HL-60 cells (% of Control) ([2]; concentration 10 μM): 72.3 % of Control | Proliferation inhibitory effect of the compounds on HL-60 cells (% of Control) ([2]; concentration 100 μM): 74.8 % of Control | Proliferation inhibitory effect of the compounds on A549 cells (% of Control) ([3]; CCK-8, 0.01 μM): 14.77 % of Control | Proliferation inhibitory effect of the compounds on A549 cells (% of Control) ([3]; CCK-8, 0.1 μM): 19.35 % of Control | Proliferation inhibitory effect of the compounds on A549 cells (% of Control) ([3]; CCK-8, 1 μM): 70.04 % of Control | Proliferation inhibitory effect of the compounds on A549 cells (% of Control) ([3]; CCK-8, 10 μM): 87.64 % of Control | Proliferation inhibitory effect of the compounds on A549 cells (% of Control) ([3]; CCK-8, 100 μM): 98.18 % of Control | IC50 ([3]; Non-small-cell carcinoma A549, CCK-8 method, read-out: The half maximal inhibitory concentration (IC50)): 715 nM | Proliferation inhibitory effect of the compounds on HL-60 cells (% of Control) ([4]; concentration 0.01 μM): 30.19 % of Control | Proliferation inhibitory effect of the compounds on HL-60 cells (% of Control) ([4]; concentration 0.1 μM): 44.96 % of Control | Proliferation inhibitory effect of the compounds on HL-60 cells (% of Control) ([4]; concentration 1 μM): 82.05 % of Control | Proliferation inhibitory effect of the compounds on HL-60 cells (% of Control) ([4]; concentration 10 μM): 87.80 % of Control | Proliferation inhibitory effect of the compounds on HL-60 cells (% of Control) ([4]; concentration 100 μM): 93.71 % of Control | IC50 ([4]; leukemia HL-60, CCK-8 method, read-out: The half maximal inhibitory concentration (IC50)): 85 nM | IC50 [5]: 1370 nM | IC50 [6]: 443 nM | IC50 [7]: < 10 nM | IC50 [8]: 167 nM | IC50 [9]: 224 nM | IC50 [10]: 331 nM | IC50 [11]: 489 nM | IC50 [12]: 1510 nM | IC50 [13]: 603 nM | IC50 [14]: 646 nM | IC50 [15]: 1360 nM | IC50 [16]: 196 nM | IC50 [17]: 175 nM | IC50 [18]: 160 nM | IC50 [19]: 1620 nM | IC50 [20]: 6.08 µM | IC50 [21]: 125 nM
